# From patent publication US6706754B2, “Reversed amidines and methods of using for treating, preventing, or inhibiting leishmaniasis” (The United States of America as represented by the …, priority 2000, dated 2004)
# Experiments:
# Assay type in all cases: cell-based
# [1] = system: L. mexicana infected macrophages; assay: Infected macrophage assay, L. mexicana; settings: for Macrophage IC50 L. mexicana: J774.G8 mouse macrophages, 72 hours, 33° C., number of infected macrophages inhibited by 50%
# Procedure: The susceptibilities of L. mexicania infected macrophages to candidate compounds were determined by the following assay.
# (§1) A one week old, confluent culture of J774.G8 mouse macrophages was washed three times with Hank's Balanced Salt Solution (HBSS) without calcium and magnesium (Sigma, St. Louis, Mo.). The J774.G8 mouse macrophages are a continuous cell line that have been cited in the literature as supporting continuous and intracellular growth of various Leishmania sp. and they have been used for drug assays against intracellular parasites, Trypanosoma cruzi and Leishmania sp. See Alcina, A., et al. (1988) Antimicrobial Agents & Chemotherapy. 32(9):1412-5; Mendez, S., et al. (1996) International Journal for Parasitology 26(6):619-22; Hodgkinson, V. H., et al. (1996) Experimental Parasitology 83(1):94-105; and Chang, K. P. (1980) Science 209(4462): 1240-42, which are herein incorporated by reference.
# (§2) The macrophages were then incubated at 37° C. in a humidified 5% CO2 incubator for 15 minutes with a Trypsin-EDTA (0.05% Trypsin, 0.53 mM EDTA 4Na) solution (GIBCO BRL, Grand Island, N.Y.). The macrophages were then detached with a cell scraper and suspended by vigorous pipetting. The macrophages were then mixed with a late log phase culture of L. mexicana promastigotes to yield a solution comprising about 5×10^5 macrophages per ml and about 25×10^5 promastigotes per ml in DMEM (pH 7.4) supplemented with 10% heat inactivated fetal calf serum comprising penicillin (50 units/ml) and streptomycin (50 μg/ml).
# (§3) The macrophage-parasite mixture was then pipetted into 96-well flat-bottom plates (Costar, Cambridge, Mass.) at 200 μl per well. Infection and attachment of the macrophages was allowed to occur over a period of about 48 hours at 33° C. in a humidified 5% CO2 incubator. The wells were washed three times with HBSS to remove extracellular parasites. Each well was then treated with serial dilutions of a given candidate compound in DMEM.
# (§4) The treated plate was incubated for about 72 hours at 33° C. in a humidified 5% CO2 incubator. The macrophages in each well were detached into the DMEM used for the incubation by pipetting and scraping with the tip of a microliter pipettor. 75 μl of the cell suspension was transferred to a cytospin funnel and the cells were centrifuged onto microscope slides at 800 rpm for 5 minutes using a Cytospin centrifuge (Shandon, Pittsburgh, Pa.).
# (§5) The slides were air dried and then fixed in methanol for 5 seconds. After the methanol evaporated, the slides were stained with 5% Giemsa stain (Fisher, Suwanee, Ga.) in phosphate buffer comprising 3.1 mM potassium phosphate dibasic and 8.3 mM sodium phosphate monobasic for 45 minutes. After thorough washing with flowing tap water, the slides were air dried and then viewed by oil immersion microscopy to determine percentage of infected cells. A cell was considered to be infected if it comprised one or more amastigote with a visible parasite nucleus and kinetoplast. Counting parasites and counting infected cells provided similar results when determining IC50 values.
# (§6) The IC50 values (the concentration of the compound that inhibited the number of infected macrophages by 50%) were determined with the software program TableCurve (SPSS Science, Chicago, Ill.) using the following dose-response equation: y=a+b/(1+(x/c)^d), where x=the drug concentration, y=absorbance at 490 nm, a=upper asymptote, b=slope, c=IC50 and d=lower asymptote. FIG. 3 provides the graphical data obtained for compound 1DWB667 as an example.
# [2] = system: L. donovani infected macrophages; assay: Infected macrophage assay, L. donovani; settings: for Macrophage IC50 L. donovani: J774.G8 mouse macrophages, 72 hours, 37° C., number of infected macrophages inhibited by 50%
# Text: as §1, §2, §3, §4, §5, §6
# The susceptibility of L. donovani infected macrophages to the compounds of the present invention were preformed by a modified protocol for L. mexicana infected macrophages above, wherein all incubations of the parasite infected macrophages were done at 37° C. rather than 33° C. FIG. 4 provides the graphical data for compound 1DWB667 as an example.
# [3] = system: L. donovani axenic amastigote-like parasites; assay: Axenic amastigote assay (CellTiter 96 tetrazolium dye growth assay); settings: 72 hours, 37° C., pH 5.5, concentration that inhibited parasite growth by 50%
# Procedure: The growth susceptibilities of L. donovani axenic amastigote-like parasites to the candidate compounds were measured in a three day assay using the tetrazolium dye-based CellTiter 96 Aqueous Non-Radioactive Cell Proliferation Assay Kit (Promega, Madison, Wis.) according to Werbovetz, K., et al. (1999) Mol. Biochem. Parasitol. 98:53-65, which is herein incorporated by reference. Pentamidine, at a starting concentration of 100 μM, and serial dilutions thereof were used as controls. Specifically, L. donovani axenic amastigotes, as described by Joshi, M. et al. (1993) Mol. Biochem. Parasitol. 58:345-354, which is herein incorporated by reference, were seeded at 10^6 cells/ml in 96-well flat-bottomed plates (Costar, Cambridge, Mass.) and maintained as axenic amastigote-like forms by serial passage at 37° C. in a humid atmosphere comprising 5% CO2 using a slightly modified potassium-based version of the medium described by Joshi, M. et al. (1993) in the presence or absence of a given candidate compound. The medium comprised 15 mM KCl, […] KH2PO4, 10 mM K2HPO4, 0.5 mM MgSO4, and 24 mM NaHCO3 to give a final potassium concentration of […]. The medium was supplemented with 20% fetal bovine serum and was brought to pH 5.5. The final volume in each well was 60 μl. The plates were incubated at 37° C. for 72 hours, then 12 μl of the aqueous CellTiter solution from the kit (Promega, Madison, Wis.) was added to each well according to the instructions of the manufacturer. The plates were returned to the incubator for about 2 to about 3 hours. Then the absorbance of each well was measured at 490 nm using a SpectraMax Plus microplate reader (Molecular Devices, Sunnyvale, Calif.).
# The results for each candidate compound may be found in the FIG. 1. The IC50 values (the concentration of the agent that inhibited parasite growth by 50%) for each candidate compound were determined for axenic amastigotes with the aid of the program SoftMax Pro (Molecular Devices, Sunnyvale, Calif.) using the following dose response equation: y=((a−d)/1+(x/c)^b)+d, wherein x=drug concentration; y=absorbance at 490 nm; a=upper asymptote; b=slope; c=IC50; and d=lower asymptote. FIG. 2 is the graphical data obtained for compound 1DWB667 as an example.
substance,measurement,setting,value
"2,5-Bis[2-methoxy-4-(2-pyridylimino)aminophenyl]furan [DB 709]",Macrophage IC50 L. mexicana,[1],0.127 µg/mL
same,Macrophage IC50 L. mexicana,[1]; listed as DB709,about 0.1 μg/ml
same,Macrophage IC50 L. donovani,[2],0.104 µg/mL
same,Axenic Amastigote IC50 L. donovani,[3],0.157 µg/mL
same,Axenic Amastigote IC50 L. donovani,[3]; listed as DB709,about 0.2 μg/ml
"2,5-Bis[2-methyl-4-(2-pyridylimino)aminophenyl]furan [DB 702]",Macrophage IC50 L. mexicana,[1],0.220 µg/mL
same,Macrophage IC50 L. donovani,[2],0.063 µg/mL
same,Macrophage IC50 L. donovani,[2]; listed as DB702,about 0.1 μg/ml
same,Axenic Amastigote IC50 L. donovani,[3],0.174 µg/mL
same,Axenic Amastigote IC50 L. donovani,[3]; listed as DB702,about 0.2 μg/ml
"2,5-Bis[4-(2-pyridylimino)aminophenyl]furan [1DWB 667]",Macrophage IC50 L. mexicana,[1],1.37 µg/mL
same,Macrophage IC50 L. mexicana,[1]; listed as DB667,about 1.4 μg/ml
same,Macrophage IC50 L. donovani,[2],0.942 µg/mL
same,Macrophage IC50 L. donovani,[2]; listed as 1DWB667,about 1.4 μg/ml
same,Axenic Amastigote IC50 L. donovani,[3],0.550 µg/mL
"2,5-Bis[2-chloro-4-(2-pyridylimino)aminophenyl]furan [DB 712]",Macrophage IC50 L. mexicana,[1],0.689 µg/mL
same,reduction of parasite burden in L. mexicana infected macrophages (in words),"[1]; in vitro, cutaneous strain",least effective in reducing parasite burden
same,Macrophage IC50 L. donovani,[2],0.127 µg/mL
same,reduction of parasite burden in L. donovani infected macrophages (in words),"[2]; in vitro, visceral strain",least effective in reducing parasite burden
same,Axenic Amastigote IC50 L. donovani,[3],0.308 µg/mL
"2,5-Bis[2-methyl-4-(5-methyl-2-pyridylimino)aminophenyl]furan [DB 710]",Macrophage IC50 L. mexicana,[1],0.094 µg/mL
same,Macrophage IC50 L. mexicana,[1]; listed as DB710,about 0.1 μg/ml
same,Macrophage IC50 L. donovani,[2],0.530 µg/mL
same,Axenic Amastigote IC50 L. donovani,[3],0.242 µg/mL
same,Axenic Amastigote IC50 L. donovani,[3]; listed as DB710,about 0.2 μg/ml
